{"source": "paper PMC6379498", "about": "“Radiosynthesis and in vivo evaluation of ^11C-labeled BMS-193885 and its desmethyl analog as PET tracers for neuropeptide Y1 receptors” (EJNMMI Radiopharmacy and Chemistry, 2019)", "key": {"[1]": {"assay": "Biodistribution of radioactivity in mice after tracer injection", "assay_type": "in vivo", "conditions": "mean±S.D. n=4", "method": "[^11C]1 (13 MBq/0.12 nmol) or [^11C]2 (15 MBq/0.36 nmol) was intravenously injected into mice (aged 7–8 weeks, weighing 33–38 g, n = 4). Mice were euthanized by cervical dislocation at 5, 15, 30, or 60 min post-injection.\n(§1) Blood samples were collected by heart puncture. Tissues were dissected and weighed. The radioactivity in samples was measured with an automatic gamma counter (Wizard 3′′ 1480, PerkinElmer, Waltham, MA, USA). The tissue uptake of radioactivity was expressed as the percentage of injected dose detected per gram of sample (%ID/g, tissue radioactivity/g tissue/injected radioactivity × 100)."}, "P-gp and BCRP": {"test_system": "P-gp and BCRP", "assay": "Effect of pretreatment with elacridar on tissue distribution of radioactivity", "assay_type": "in vivo, mice", "conditions": "30 min post-injection, elacridar 5 mg/kg 20-30 min before tracer, vs control", "method": "The effects of pretreatment with 1 (BMS-193885) or the ABC transporter-inhibitor elacridar (inhibiting drug efflux transporters, mainly P-gp and BCRP) on tissue distributions of radioactivity were investigated. [^11C]1 (7.1–14 MBq/0.079–0.23 nmol) or [^11C]2 (6.0 MBq/0.16 nmol) was intravenously injected into mice (aged 7–8 weeks, weighing 32–36 g, n = 4–8) 20–30 min after the administration of the solution of 1 (10 mg/kg body weight [b.w.]/0.1 mL water containing 20% Tween 80), elacridar (5 mg/kg b.w./0.1 mL water), or a control fluid (0.1 mL water). Mice were euthanized by cervical dislocation at 30 min post-injection.\nas §1"}, "NPY Y1-Rs": {"target": "T1, NPY Y1-Rs (Mus musculus, UniProt Q04573)", "T1 construct": "in the lung, spleen, and kidney, which are rich in NPY Y1-Rs; from tissue; host or cells: organs of living mice (blood, heart, lung, spleen, kidney, liver, pancreas, muscle, brain etc.)", "T1 sequence (Q04573 1-382)": "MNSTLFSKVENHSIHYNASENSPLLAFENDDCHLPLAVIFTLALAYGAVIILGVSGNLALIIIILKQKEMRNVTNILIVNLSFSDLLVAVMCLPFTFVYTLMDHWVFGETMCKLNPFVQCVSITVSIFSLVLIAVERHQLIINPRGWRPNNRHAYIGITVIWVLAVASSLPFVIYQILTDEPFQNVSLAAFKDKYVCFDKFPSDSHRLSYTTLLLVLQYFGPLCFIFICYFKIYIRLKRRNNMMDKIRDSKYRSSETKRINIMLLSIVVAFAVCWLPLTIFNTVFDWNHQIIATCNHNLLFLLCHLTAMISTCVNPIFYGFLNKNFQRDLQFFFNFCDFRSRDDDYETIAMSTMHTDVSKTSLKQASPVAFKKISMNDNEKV", "assay": "Effect of pretreatment with 1 (BMS-193885) on tissue distribution of radioactivity", "assay_type": "in vivo, mice", "conditions": "30 min post-injection, 1 10 mg/kg 20-30 min before tracer, vs control", "method": "[^11C]1 (7.1–14 MBq/0.079–0.23 nmol) or [^11C]2 (6.0 MBq/0.16 nmol) was intravenously injected into mice (aged 7–8 weeks, weighing 32–36 g, n = 4–8) 20–30 min after the administration of the solution of 1 (10 mg/kg body weight [b.w.]/0.1 mL water containing 20% Tween 80), elacridar (5 mg/kg b.w./0.1 mL water), or a control fluid (0.1 mL water). Mice were euthanized by cervical dislocation at 30 min post-injection.\nBlood samples were collected by heart puncture. Tissues were dissected and weighed. […] The tissue uptake of radioactivity was expressed as the percentage of injected dose detected per gram of sample (%ID/g, tissue radioactivity/g tissue/injected radioactivity × 100)."}}}
{"smiles": "COC(=O)C1=C(C)NC(C)=C(C(=O)OC)C1c1cccc(NC(=O)NCCCN2CCC(c3cccc(O[11CH3])c3)CC2)c1", "note": "[[^11C]1]", "values": [{"measurement": "Radioactivity level, blood", "setting": "[1]; 5 min after i.v. injection", "value": "0.76±0.07", "unit": "%ID/g"}, {"measurement": "Radioactivity level, blood", "setting": "[1]; 15 min after i.v. injection", "value": "0.60±0.06", "unit": "%ID/g"}, {"measurement": "Radioactivity level, blood", "setting": "[1]; 30 min after i.v. injection", "value": "0.50±0.04", "unit": "%ID/g"}, {"measurement": "Radioactivity level, blood", "setting": "[1]; 60 min after i.v. injection", "value": "0.46±0.06", "unit": "%ID/g"}, {"measurement": "Radioactivity level, brain", "setting": "[1]; 5 min after i.v. injection", "value": "0.21±0.01", "unit": "%ID/g"}, {"measurement": "Radioactivity level, brain", "setting": "[1]; 15 min after i.v. injection", "value": "0.40±0.06", "unit": "%ID/g"}, {"measurement": "Radioactivity level, brain", "setting": "[1]; 30 min after i.v. injection", "value": "0.32±0.05", "unit": "%ID/g"}, {"measurement": "Radioactivity level, brain", "setting": "[1]; 60 min after i.v. injection", "value": "0.32±0.05", "unit": "%ID/g"}, {"measurement": "Radioactivity level, heart", "setting": "[1]; 5 min after i.v. injection", "value": "1.93±0.23", "unit": "%ID/g"}, {"measurement": "Radioactivity level, heart", "setting": "[1]; 15 min after i.v. injection", "value": "1.38±0.04", "unit": "%ID/g"}, {"measurement": "Radioactivity level, heart", "setting": "[1]; 30 min after i.v. injection", "value": "1.10±0.05", "unit": "%ID/g"}, {"measurement": "Radioactivity level, heart", "setting": "[1]; 60 min after i.v. injection", "value": "0.82±0.07", "unit": "%ID/g"}, {"measurement": "Radioactivity level, kidney", "setting": "[1]; 5 min after i.v. injection", "value": "17.41±1.12", "unit": "%ID/g"}, {"measurement": "Radioactivity level, kidney", "setting": "[1]; 15 min after i.v. injection", "value": "14.06±1.00", "unit": "%ID/g"}, {"measurement": "Radioactivity level, kidney", "setting": "[1]; 30 min after i.v. injection", "value": "12.93±1.01", "unit": "%ID/g"}, {"measurement": "Radioactivity level, kidney", "setting": "[1]; 60 min after i.v. injection", "value": "13.37±2.72", "unit": "%ID/g"}, {"measurement": "Radioactivity level, liver", "setting": "[1]; 5 min after i.v. injection", "value": "16.09±1.85", "unit": "%ID/g"}, {"measurement": "Radioactivity level, liver", "setting": "[1]; 15 min after i.v. injection", "value": "8.82±2.28", "unit": "%ID/g"}, {"measurement": "Radioactivity level, liver", "setting": "[1]; 30 min after i.v. injection", "value": "5.05±0.40", "unit": "%ID/g"}, {"measurement": "Radioactivity level, liver", "setting": "[1]; 60 min after i.v. injection", "value": "4.09±1.60", "unit": "%ID/g"}, {"measurement": "Radioactivity level, lung", "setting": "[1]; 5 min after i.v. injection", "value": "5.08±1.12", "unit": "%ID/g"}, {"measurement": "Radioactivity level, lung", "setting": "[1]; 15 min after i.v. injection", "value": "3.43±0.28", "unit": "%ID/g"}, {"measurement": "Radioactivity level, lung", "setting": "[1]; 30 min after i.v. injection", "value": "2.72±0.21", "unit": "%ID/g"}, {"measurement": "Radioactivity level, lung", "setting": "[1]; 60 min after i.v. injection", "value": "2.13±0.36", "unit": "%ID/g"}, {"measurement": "Radioactivity level, muscle", "setting": "[1]; 5 min after i.v. injection", "value": "0.64±0.05", "unit": "%ID/g"}, {"measurement": "Radioactivity level, muscle", "setting": "[1]; 15 min after i.v. injection", "value": "0.57±0.08", "unit": "%ID/g"}, {"measurement": "Radioactivity level, muscle", "setting": "[1]; 30 min after i.v. injection", "value": "0.52±0.11", "unit": "%ID/g"}, {"measurement": "Radioactivity level, muscle", "setting": "[1]; 60 min after i.v. injection", "value": "0.47±0.07", "unit": "%ID/g"}, {"measurement": "Radioactivity level, pancreas", "setting": "[1]; 5 min after i.v. injection", "value": "3.40±0.46", "unit": "%ID/g"}, {"measurement": "Radioactivity level, pancreas", "setting": "[1]; 15 min after i.v. injection", "value": "3.75±0.35", "unit": "%ID/g"}, {"measurement": "Radioactivity level, pancreas", "setting": "[1]; 30 min after i.v. injection", "value": "3.64±0.22", "unit": "%ID/g"}, {"measurement": "Radioactivity level, pancreas", "setting": "[1]; 60 min after i.v. injection", "value": "3.70±0.41", "unit": "%ID/g"}, {"measurement": "Radioactivity level, small intestine", "setting": "[1]; 5 min after i.v. injection", "value": "6.98±2.37", "unit": "%ID/g"}, {"measurement": "Radioactivity level, small intestine", "setting": "[1]; 15 min after i.v. injection", "value": "9.11±1.31", "unit": "%ID/g"}, {"measurement": "Radioactivity level, small intestine", "setting": "[1]; 30 min after i.v. injection", "value": "11.02±1.44", "unit": "%ID/g"}, {"measurement": "Radioactivity level, small intestine", "setting": "[1]; 60 min after i.v. injection", "value": "12.43±1.54", "unit": "%ID/g"}, {"measurement": "Radioactivity level, spleen", "setting": "[1]; 5 min after i.v. injection", "value": "3.18±0.67", "unit": "%ID/g"}, {"measurement": "Radioactivity level, spleen", "setting": "[1]; 15 min after i.v. injection", "value": "2.05±0.17", "unit": "%ID/g"}, {"measurement": "Radioactivity level, spleen", "setting": "[1]; 30 min after i.v. injection", "value": "1.66±0.04", "unit": "%ID/g"}, {"measurement": "Radioactivity level, spleen", "setting": "[1]; 60 min after i.v. injection", "value": "1.41±0.24", "unit": "%ID/g"}, {"measurement": "Change of radioactivity level in blood by pretreatment with elacridar", "setting": "P-gp and BCRP; blood", "value": "significantly increased"}, {"measurement": "Change of radioactivity level in brain by pretreatment with elacridar", "setting": "P-gp and BCRP; brain", "value": "significantly increased"}, {"measurement": "Change of radioactivity level in heart by pretreatment with elacridar", "setting": "P-gp and BCRP; heart", "value": "significantly increased"}, {"measurement": "Change of radioactivity level in kidney by pretreatment with elacridar", "setting": "P-gp and BCRP; kidney", "value": "significantly decreased"}, {"measurement": "Change of radioactivity level in lung by pretreatment with elacridar", "setting": "P-gp and BCRP; lung", "value": "significantly increased"}, {"measurement": "Change of radioactivity level in muscle by pretreatment with elacridar", "setting": "P-gp and BCRP; muscle", "value": "significantly increased"}, {"measurement": "Change of radioactivity level in blood by pretreatment with 1", "setting": "NPY Y1-Rs; blood", "value": "not changed"}, {"measurement": "Change of radioactivity level in brain by pretreatment with 1", "setting": "NPY Y1-Rs; brain", "value": "not changed"}, {"measurement": "Change of radioactivity level in heart by pretreatment with 1", "setting": "NPY Y1-Rs; heart", "value": "not changed"}, {"measurement": "Change of radioactivity level in kidney by pretreatment with 1", "setting": "NPY Y1-Rs; kidney", "value": "significantly decreased"}, {"measurement": "Change of radioactivity level in lung by pretreatment with 1", "setting": "NPY Y1-Rs; lung", "value": "significantly decreased"}, {"measurement": "Change of radioactivity level in muscle by pretreatment with 1", "setting": "NPY Y1-Rs; muscle", "value": "not changed"}, {"measurement": "Change of radioactivity level in pancreas by pretreatment with 1", "setting": "NPY Y1-Rs; pancreas", "value": "not changed"}, {"measurement": "Change of radioactivity level in spleen by pretreatment with 1", "setting": "NPY Y1-Rs; spleen", "value": "significantly decreased"}]}
